Test: Solubility of TPPMS-Na in various aldehydes with solubilizing agent mixture
Format: physicochemical
Conditions: TERGITOL 24-L-75N/CARBOWAX TPEG-900 (4:1)
Text: The solubilizing agent mixture was employed in a 1:2 weight:weight ratio with the various aldehydes.

O=S(=O)([O-])c1cccc(P(c2ccccc2)c2ccccc2)c1.[Na+]
TPPMS-Na Solubility at 25 deg. C. (Butyraldehyde): > 20 Weight Percent
TPPMS-Na Solubility at 25 deg. C. (Heptanal): 18 Weight Percent
TPPMS-Na Solubility at 25 deg. C. (Nonanal): 12 Weight Percent
TPPMS-Na Solubility at 25 deg. C. (Tridecanal): 8 Weight Percent
TPPMS-Na Solubility at 25 deg. C. (Valeraldehyde): > 20 Weight Percent

From patent US4731486A, “Hydroformylation using low volatile phosphine ligands” (Union Carbide Corporation, priority 1986, dated 1988)
